Measurements taken from ChEMBL document CHEMBL3232998, “Spiromastixones A-O, antibacterial chlorodepsidones from a deep-sea-derived Spiromastix sp. fungus” (J Nat Prod, 2014).
Converted amounts (≈) assume the structure as drawn.

How the values were obtained:
Staphylococcus aureus [1] = test: Antibacterial activity against Staphylococcus aureus ATCC 29213 after 18 hrs by broth microdilution method; assay type: functional; settings: ATCC 29213, 18 h
Bacillus thuringiensis = test: Antibacterial activity against Bacillus thuringiensis SCSIO BT01 after 18 hrs by broth microdilution method; assay type: functional; settings: SCSIO BT01, 18 h
Bacillus subtilis = test: Antibacterial activity against Bacillus subtilis SCSIO BS01 after 18 hrs by broth microdilution method; assay type: functional; settings: SCSIO BS01, 18 h
Escherichia coli [2] = test: Antibacterial activity against Escherichia coli ATCC 25922 after 18 hrs by broth microdilution method; assay type: functional; settings: ATCC 25922, 18 h
Staphylococcus aureus [3] = test: Antibacterial activity against methicillin-sensitive Staphylococcus aureus ATCC 29213 after 18 hrs by broth microdilution method; assay type: functional, organism-based; settings: ATCC 29213, 18 h, read-out: IC50
Staphylococcus aureus [4] = test: Antibacterial activity against methicillin-resistant Staphylococcus aureus ATCC 33591 after 18 hrs by broth microdilution method; assay type: functional, organism-based; settings: ATCC 33591, 18 h, read-out: IC50
Staphylococcus aureus [5] = test: Antibacterial activity against methicillin-sensitive Staphylococcus aureus 15 after 18 hrs by broth microdilution method; assay type: functional, organism-based; settings: Staphylococcus aureus, 15, 18 h; read-out: IC50
Staphylococcus aureus [6] = test: Antibacterial activity against methicillin-sensitive Staphylococcus aureus 12-28 after 18 hrs by broth microdilution method; assay type: functional, organism-based; settings: 12-28, 18 h
Staphylococcus aureus [7] = test: Antibacterial activity against methicillin-resistant Staphylococcus aureus 12-33 after 18 hrs by broth microdilution method; assay type: functional, organism-based; settings: 12-33, 18 h, read-out: IC50
[8] = tested on: Staphylococcus epidermidis; test: Antibacterial activity against methicillin-sensitive Staphylococcus epidermidis ATCC 12228 after 18 hrs by broth microdilution method; assay type: functional, organism-based; settings: ATCC 12228, 18 h, read-out: IC50
[9] = tested on: Staphylococcus epidermidis; test: Antibacterial activity against methicillin-sensitive Staphylococcus epidermidis 12-6 after 18 hrs by broth microdilution method; assay type: functional, organism-based; settings: 12-6, 18 h
[10] = tested on: Staphylococcus epidermidis; test: Antibacterial activity against methicillin-resistant Staphylococcus epidermidis 12-8 after 18 hrs by broth microdilution method; assay type: functional, organism-based; settings: 12-8, 18 h, read-out: IC50
Enterococcus faecalis [11] = test: Antibacterial activity against vancomycin-sensitive Enterococcus faecalis ATCC 29212 after 18 hrs by broth microdilution method; assay type: functional, organism-based; settings: ATCC 29212, 18 h, read-out: IC50
Enterococcus faecalis [12] = test: Antibacterial activity against vancomycin-resistant Enterococcus faecalis ATCC 51299 after 18 hrs by broth microdilution method; assay type: functional, organism-based; settings: ATCC 51299, 18 h, read-out: IC50
Enterococcus faecalis [13] = test: Antibacterial activity against vancomycin-sensitive Enterococcus faecalis 12-5 after 18 hrs by broth microdilution method; assay type: functional, organism-based; settings: 12-5, 18 h, read-out: IC50
Enterococcus faecalis [14] = test: Antibacterial activity against vancomycin-resistant Enterococcus faecalis 09-9 after 18 hrs by broth microdilution method; assay type: functional, organism-based; settings: 09-9, 18 h, read-out: IC50
Enterococcus faecium [15] = test: Antibacterial activity against vancomycin-resistant Enterococcus faecium ATCC 700221 after 18 hrs by broth microdilution method; assay type: functional, organism-based; settings: ATCC 700221, 18 h, read-out: IC50
Enterococcus faecium [16] = test: Antibacterial activity against vancomycin-resistant Enterococcus faecium 12-1 after 18 hrs by broth microdilution method; assay type: functional, organism-based; settings: 12-1, 18 h, read-out: IC50
Enterococcus faecium [17] = test: Antibacterial activity against vancomycin-sensitive Enterococcus faecium 12-3 after 18 hrs by broth microdilution method; assay type: functional, organism-based; settings: 12-3, 18 h, read-out: IC50
Escherichia coli [18] = test: Antibacterial activity against extended spectrum beta-lactamase-deficient Escherichia coli ATCC 25922 after 18 hrs by broth microdilution method; assay type: functional, organism-based; settings: ATCC 25922, 18 h, read-out: IC50
Escherichia coli [19] = test: Antibacterial activity against extended spectrum beta-lactamase-deficient Escherichia coli 1515 after 18 hrs by broth microdilution method; assay type: functional, organism-based; settings: Escherichia coli, 1515, 18 h
Escherichia coli [20] = test: Antibacterial activity against extended spectrum beta-lactamase-deficient Escherichia coli 12-14 after 18 hrs by broth microdilution method; assay type: functional, organism-based; settings: 12-14, 18 h, read-out: IC50
Escherichia coli [21] = test: Antibacterial activity against extended spectrum beta-lactamase producing Escherichia coli 12-15 after 18 hrs by broth microdilution method; assay type: functional, organism-based; settings: 12-15, 18 h, read-out: IC50
Klebsiella pneumoniae [22] = test: Antibacterial activity against extended spectrum beta-lactamase producing Klebsiella pneumoniae ATCC 700603 after 18 hrs by broth microdilution method; assay type: functional, organism-based; settings: ATCC 700603, 18 h
Klebsiella pneumoniae [23] = test: Antibacterial activity against extended spectrum beta-lactamase-deficient Klebsiella pneumoniae 7 after 18 hrs by broth microdilution method; assay type: functional, organism-based; settings: Klebsiella pneumoniae, 7, 18 h; read-out: IC50
Klebsiella pneumoniae [24] = test: Antibacterial activity against NDM-1 producing Klebsiella pneumoniae ATCC BAA-2146 after 18 hrs by broth microdilution method; assay type: functional, organism-based; settings: ATCC BAA-2146, 18 h, read-out: IC50
Klebsiella pneumoniae [25] = test: Antibacterial activity against extended spectrum beta-lactamase-deficient Klebsiella pneumoniae 12-4 after 18 hrs by broth microdilution method; assay type: functional, organism-based; settings: 12-4, 18 h
Klebsiella pneumoniae [26] = test: Antibacterial activity against extended spectrum beta-lactamase producing Klebsiella pneumoniae 12-8 after 18 hrs by broth microdilution method; assay type: functional, organism-based; settings: 12-8, 18 h, read-out: IC50
Staphylococcus aureus [27] = test: Ratio of levofloxacin IC50 to compound IC50 for methicillin-resistant Staphylococcus aureus 12-33 after 18 hrs by broth microdilution method; assay type: functional

| Compound | MIC (Staphylococcus aureus [1]) [µg/mL] | MIC (Bacillus thuringiensis) [µg/mL] | MIC (Bacillus subtilis) [µg/mL] | MIC (Escherichia coli [2]) [µg/mL] | MIC (Staphylococcus aureus [3]) [µM] | MIC (Staphylococcus aureus [4]) [µM] | MIC (Staphylococcus aureus [5]) [µM] | IC50 (Staphylococcus aureus [6]) [µM] | MIC (Staphylococcus aureus [7]) [µM] | MIC [8] [µM] | IC50 [9] [µM] | MIC [10] [µM] | MIC (Enterococcus faecalis [11]) [µM] | MIC (Enterococcus faecalis [12]) [µM] | MIC (Enterococcus faecalis [13]) [µM] | MIC (Enterococcus faecalis [14]) [µM] | MIC (Enterococcus faecium [15]) [µM] | MIC (Enterococcus faecium [16]) [µM] | MIC (Enterococcus faecium [17]) [µM] | MIC (Escherichia coli [18]) [µM] | further results |
| --- | --- | --- | --- | --- | --- | --- | --- | --- | --- | --- | --- | --- | --- | --- | --- | --- | --- | --- | --- | --- | --- |
| CCCc1c(Cl)c(OC)c(Cl)c2c1Oc1c(Cl)c(O)c(Cl)c(CCC)c1C(=O)O2 | 0.125 (≈ 0.26 µM) | 0.25 (≈ 0.521 µM) | 0.125 (≈ 0.26 µM) | > 128 | 4 (≈ 1.92 µg/mL) | 2 (≈ 0.96 µg/mL) | 2 (≈ 0.96 µg/mL) | 4 | 4 (≈ 1.92 µg/mL) | 4 (≈ 1.92 µg/mL) | 2 | 1 (≈ 0.48 µg/mL) | 4 (≈ 1.92 µg/mL) | 4 (≈ 1.92 µg/mL) | 4 (≈ 1.92 µg/mL) | 4 (≈ 1.92 µg/mL) | 4 (≈ 1.92 µg/mL) | 4 (≈ 1.92 µg/mL) | 4 (≈ 1.92 µg/mL) | > 256 | IC50 (Escherichia coli [19]): > 256 µM; MIC (Escherichia coli [20]): > 256 µM; MIC (Escherichia coli [21]): > 256 µM; IC50 (Klebsiella pneumoniae [22]): > 256 µM; MIC (Klebsiella pneumoniae [23]): > 256 µM; MIC (Klebsiella pneumoniae [24]): > 256 µM; IC50 (Klebsiella pneumoniae [25]): > 256 µM; MIC (Klebsiella pneumoniae [26]): > 256 µM; Ratio IC50 (Staphylococcus aureus [27]): 2 |
| CCCc1c(Cl)c(OC)cc2c1Oc1c(Cl)c(O)c(Cl)c(CCC)c1C(=O)O2 | 0.5 (≈ 1.12 µM) | 0.5 (≈ 1.12 µM) | 0.25 (≈ 0.561 µM) | > 128 | 8 (≈ 3.57 µg/mL) | 4 (≈ 1.78 µg/mL) | 4 (≈ 1.78 µg/mL) | 4 | 8 (≈ 3.57 µg/mL) | 4 (≈ 1.78 µg/mL) | 4 | 2 (≈ 0.891 µg/mL) | 128 (≈ 57.1 µg/mL) | > 256 | > 256 | 256 (≈ 114 µg/mL) | 256 (≈ 114 µg/mL) | 16 (≈ 7.13 µg/mL) | 256 (≈ 114 µg/mL) | > 256 | IC50 (Escherichia coli [19]): > 256 µM; MIC (Escherichia coli [20]): > 256 µM; MIC (Escherichia coli [21]): > 256 µM; IC50 (Klebsiella pneumoniae [22]): > 256 µM; MIC (Klebsiella pneumoniae [23]): > 256 µM; MIC (Klebsiella pneumoniae [24]): > 256 µM; IC50 (Klebsiella pneumoniae [25]): > 256 µM; MIC (Klebsiella pneumoniae [26]): > 256 µM; Ratio IC50 (Staphylococcus aureus [27]): 2 |
| CCCc1c(Cl)c(O)c(Cl)c2c1Oc1c(Cl)c(O)c(Cl)c(CCC)c1C(=O)O2 | 4 (≈ 8.58 µM) | 2 (≈ 4.29 µM) | 2 (≈ 4.29 µM) | > 128 | 16 (≈ 7.46 µg/mL) | 16 (≈ 7.46 µg/mL) | 16 (≈ 7.46 µg/mL) | 16 | 32 (≈ 14.9 µg/mL) | 4 (≈ 1.86 µg/mL) | 4 | 8 (≈ 3.73 µg/mL) | 64 (≈ 29.8 µg/mL) | 64 (≈ 29.8 µg/mL) | 64 (≈ 29.8 µg/mL) | 64 (≈ 29.8 µg/mL) | 64 (≈ 29.8 µg/mL) | 64 (≈ 29.8 µg/mL) | 64 (≈ 29.8 µg/mL) | > 256 | IC50 (Escherichia coli [19]): > 256 µM; MIC (Escherichia coli [20]): > 256 µM; MIC (Escherichia coli [21]): > 256 µM; IC50 (Klebsiella pneumoniae [22]): > 256 µM; MIC (Klebsiella pneumoniae [23]): > 256 µM; MIC (Klebsiella pneumoniae [24]): > 256 µM; IC50 (Klebsiella pneumoniae [25]): > 256 µM; MIC (Klebsiella pneumoniae [26]): > 256 µM; Ratio IC50 (Staphylococcus aureus [27]): 2 |
| CCCc1cc(O)c(Cl)c2c1Oc1c(Cl)c(O)c(Cl)c(CCC)c1C(=O)O2 | 4 (≈ 9.27 µM) | 1 (≈ 2.32 µM) | 1 (≈ 2.32 µM) | > 128 | 4 (≈ 1.73 µg/mL) | 4 (≈ 1.73 µg/mL) | 4 (≈ 1.73 µg/mL) | 8 | 8 (≈ 3.45 µg/mL) | 4 (≈ 1.73 µg/mL) | 2 | 4 (≈ 1.73 µg/mL) | 16 (≈ 6.91 µg/mL) | 16 (≈ 6.91 µg/mL) | 16 (≈ 6.91 µg/mL) | 16 (≈ 6.91 µg/mL) | 16 (≈ 6.91 µg/mL) | 16 (≈ 6.91 µg/mL) | 32 (≈ 13.8 µg/mL) | 64 (≈ 27.6 µg/mL) | IC50 (Escherichia coli [19]): 64 µM; MIC (Escherichia coli [20]): 64 µM (≈ 27.6 µg/mL); MIC (Escherichia coli [21]): 64 µM (≈ 27.6 µg/mL); IC50 (Klebsiella pneumoniae [22]): 256 µM; MIC (Klebsiella pneumoniae [23]): 256 µM (≈ 111 µg/mL); MIC (Klebsiella pneumoniae [24]): 256 µM (≈ 111 µg/mL); IC50 (Klebsiella pneumoniae [25]): 128 µM; MIC (Klebsiella pneumoniae [26]): 128 µM (≈ 55.3 µg/mL); Ratio IC50 (Staphylococcus aureus [27]): 2 |
